From the CheMixHub drug solubility set

Assay: xn = mol fraction of the nth substance listed, in the solute-free solvent

COC(=O)C1=C(C)NC(C)=C(C(=O)OCC(C)C)C1c1ccccc1[N+](=O)[O-] (stereo unspecified) + CCOC(C)=O + CC(C)O
solubility (g/100 g solution)
Conditions	278.15 K	283.15 K	288.15 K	293.15 K	298.15 K	303.15 K	308.15 K	313.15 K	318.15 K
x2 = 0.07045	3.52	4.21	5.01	5.86	6.83	7.91	9.07	10.5	11.9
x2 = 0.1457	4.03	4.67	5.54	6.46	7.55	8.74	9.96	11.4	12.9
x2 = 0.2262	4.4	5.19	6.09	7.07	8.21	9.47	10.8	12.3	13.9
x2 = 0.3126	4.88	5.76	6.68	7.75	8.91	10.2	11.5	13	14.7
x2 = 0.4055	5.37	6.28	7.26	8.31	9.53	10.8	12.3	13.8	15.4
x2 = 0.5057	5.77	6.69	7.7	8.82	10.1	11.4	12.9	14.5	16.1
x2 = 0.6141	6.12	7.09	8.13	9.25	10.6	12	13.5	15.1	16.8
x2 = 0.7318	6.4	7.37	8.53	9.72	11	12.5	14.1	15.7	17.5
x2 = 0.8599	6.59	7.63	8.83	10	11.4	12.8	14.3	16	17.8

Cc1nc(CCl)nc2ccccc12 + CC(C)=O + CCCCCC
solubility (g/100 g solution)
Conditions	x2 = 0.144	x2 = 0.266	x2 = 0.403	x2 = 0.556	x2 = 0.729
281.15 K	5.18	8.5	12.8	17.2	22.3
286.15 K	6.57	10.8	15.5	21.2	27.1
291.15 K	8.19	13.3	19.2	25.8	32.3
296.15 K	10.3	16.2	22.9	30.4	39.2
301.15 K	12.7	19.9	28.3	36.2	44.9
306.15 K	15.6	23.9	33.3	42.4	51.9
311.15 K	18.9	28.3	38.4	48.4	58.8
316.15 K	22.5	33.1	43.7	54.6	65
321.15 K	26.6	37.2	49	60.7	71
326.15 K	30.9	42.9	54.4	65.4	75.5
331.15 K	34.9	47.5	59	70.3	79.5

COC(=O)C1=C(C)NC(C)=C(C(=O)OCC(C)C)C1c1ccccc1[N+](=O)[O-] (stereo unspecified) + CCOC(C)=O + CCO
solubility (g/100 g solution)
Conditions	278.15 K	283.15 K	288.15 K	293.15 K	298.15 K	303.15 K	308.15 K	313.15 K	318.15 K
x2 = 0.05491	3.09	3.87	4.65	5.7	6.64	8.03	9.37	11.1	12.9
x2 = 0.1156	3.98	4.79	5.78	6.75	8.13	9.47	11	12.8	14.5
x2 = 0.1831	4.91	5.89	6.97	8.15	9.36	10.8	12.3	14	15.7
x2 = 0.2585	5.53	6.46	7.49	8.75	10	11.5	13	14.7	16.6
x2 = 0.3434	5.99	6.94	8.09	9.33	10.6	12	13.7	15.3	17.2
x2 = 0.4396	6.34	7.36	8.52	9.66	11.2	12.6	14.2	15.9	17.7
x2 = 0.5496	6.6	7.63	8.77	10.1	11.4	12.8	14.4	16.1	18
x2 = 0.6765	6.76	7.78	8.91	10.2	11.5	13.1	14.7	16.3	18.2
x2 = 0.8247	6.8	7.86	9.01	10.2	11.6	13.1	14.6	16.3	18.2

CCCCN1CCCCC1C(=O)Nc1c(C)cccc1C.Cl.O (stereo unspecified) + CO + O
solubility (g/100 g solution)
Conditions	293.15 K	298.15 K	303.15 K	308.15 K	313.15 K	318.15 K	323.15 K	328.15 K	333.15 K
x2 = 0.1	2.92	3.74	5.36	6.77	8.14	9.76	11.3	13.1	14.9
x2 = 0.2	3.04	4.11	5.31	7.06	9.3	11.4	14.1	15.8	19.5
x2 = 0.3	3.57	4.29	5.13	7.32	10.9	14.7	19.7	25.1	30.3
x2 = 0.4	3.64	4.18	5.89	7.92	11.9	17.4	22.3	28	33.2
x2 = 0.5	4.08	4.96	6.91	9.37	13.3	18.7	23.4	28.9	35.2
x2 = 0.6	5.88	6.91	8.26	10.9	14.8	19.1	23.4	29.8	35.8
x2 = 0.7	7.34	8.09	9.74	12.7	16.6	19.9	23.5	30.3	36.2
x2 = 0.8	8.13	9.32	12	14.3	17.3	20.6	24.5	30.2	–
x2 = 0.9	8.65	10.1	13	16	18.9	21.6	25.4	30.3	–

O=C(CC(=O)c1ccccc1)c1ccccc1 + CC(C)O + O
solubility (g/100 g solution)
Conditions	278.15 K	283.15 K	288.15 K	293.15 K	298.15 K	303.15 K	308.15 K	313.15 K	318.15 K
x2 = 0.2	0.0987	0.114	0.14	0.185	0.222	0.277	0.338	0.422	0.528
x2 = 0.4	0.264	0.353	0.459	0.618	0.711	1.05	1.26	1.73	4.77
x2 = 0.6	0.61	0.936	1.23	1.34	1.47	1.91	2.36	3.27	4.94
x2 = 0.8	0.977	1.43	1.48	2.1	2.32	2.93	3.69	4.5	7.02

Clc1ncnc2[nH]ccc12 + C1CCOC1 + CC#N
solubility (g/100 g solution)
Conditions	278.15 K	283.15 K	288.15 K	293.15 K	298.15 K	303.15 K	308.15 K	313.15 K	318.15 K	323.15 K
x2 = 0.1144	1.32	1.6	1.93	2.31	2.76	3.28	3.83	4.5	5.24	6.02
x2 = 0.2441	2.03	2.39	2.84	3.33	3.92	4.49	5.24	5.97	6.81	7.73
x2 = 0.3923	3.17	3.65	4.24	4.84	5.58	6.34	7.13	8.04	9.06	10.1
x2 = 0.4748	3.9	4.49	5.13	5.83	6.63	7.45	8.34	9.34	10.4	11.5
x2 = 0.5636	5.02	5.61	6.32	7.09	8	8.89	9.89	10.9	12	13.2
x2 = 0.7635	7.14	8	8.83	9.79	10.7	11.8	12.8	14	15.2	16.4

COC(=O)C1=C(C)NC(C)=C(C(=O)OCC(C)C)C1c1ccccc1[N+](=O)[O-] (stereo unspecified) + CC#N + O
solubility (g/100 g solution)
Conditions	278.15 K	283.15 K	288.15 K	293.15 K	298.15 K	303.15 K	308.15 K	313.15 K	318.15 K
x2 = 0.04651	0.165	0.218	0.288	0.377	0.488	0.61	0.767	0.973	1.21
x2 = 0.0989	0.678	0.855	1.1	1.36	1.7	2.08	2.53	3.12	3.73
x2 = 0.1583	1.3	1.62	2.02	2.51	3.07	3.73	4.57	5.46	6.5
x2 = 0.2264	2.08	2.58	3.1	3.86	4.65	5.62	6.61	7.85	9.2
x2 = 0.3051	2.84	3.54	4.32	5.15	6.3	7.5	8.79	10.4	12.1
x2 = 0.397	3.75	4.65	5.65	6.7	8.1	9.55	11.2	13.1	15.2
x2 = 0.506	4.72	5.77	6.86	8.3	9.96	11.8	13.7	15.7	18
x2 = 0.6372	5.69	6.77	8.36	9.95	11.7	13.6	15.7	18.2	20.7
x2 = 0.798	6.56	7.83	9.45	11.2	13.1	15.2	17.6	20.2	22.9

O=C1NS(=O)(=O)c2ccccc21 + CC#N + CCO
solubility (g/100 g solution)
Conditions	x2 = 0.0999	x2 = 0.2002	x2 = 0.2997	x2 = 0.3998	x2 = 0.5002	x2 = 0.5999	x2 = 0.7001	x2 = 0.7999	x2 = 0.8999
293.15 K	5.33	7.27	8.67	9.52	9.7	9.58	8.96	7.58	5.52
298.15 K	5.91	7.97	9.45	10.3	10.7	10.6	9.85	8.34	6.08
303.15 K	6.8	9.11	10.7	11.7	12.1	11.9	11.1	9.45	6.93
308.15 K	7.49	9.96	11.7	12.7	13.5	13.2	12.3	10.5	7.63
313.15 K	8.72	11.5	13.3	14.4	14.8	14.6	13.6	11.7	8.61
318.15 K	10.1	13.2	15.3	16.5	16.8	16.7	15.4	13.3	9.87
323.15 K	11.4	14.7	16.9	18.1	18.5	18.2	17	14.6	10.9
